This note sets out measurements from patent US7858630B2, “D3 and 5-HT2A receptor modulators” (Hoffmann-La Roche Inc., priority 2008, dated 2010).

Some results are limits rather than exact numbers.

For assay [1], the target named is T1, human dopamine D3 receptor (Homo sapiens, UniProt P35462).
T1 construct: expressed in transfected cells; host or cells: HEK-293 EBNA cells, transient transfection; membrane preparation
Nature of the assay: Radioligand binding ([3H]-spiperone) to membranes of HEK-293 EBNA cells expressing human D3 receptor. The settings on record: human D3, 0.5 nM [3H]-spiperone, HEK-293 EBNA membranes, 1 h at RT. As for the experimental part:
(§1) The ability of the compounds to bind to the 5-HT2A, D3 and D2 receptors was determined using radioligand binding to cloned receptors selectively expressed in HEK-293 EBNA cells.
(§2) Membrane Preparation for Human D2, Human D3 and Human 5-HT2A Receptors
(§3) HEK-293 EBNA cells were transiently transfected with expression plasmids encoding for the human D2 or D3 dopamine- or for the human 5-HT2A serotonin receptor, respectively. The cells were harvested 48 h post-transfection, washed three times with cold PBS and stored at −80° C. prior to use. The pellet was suspended in cold 50 mM Tris-HCl buffer containing 10 mM EDTA (pH 7.4) and homogenized with a Polytron (Kinematica AG, Basel, Switzerland) for 20-30 sec at 12.000 rpm. After centrifugation at 48.000×g for 30 min at 4° C., the pellet was resuspended in cold 10 mM Tris-HCl buffer containing 0.1 mM EDTA (pH 7.4), homogenized, and centrifuged as above. This pellet was further resuspended in a smaller volume of ice cold 10 mM Tris-HCl buffer containing 0.1 mM EDTA (pH 7.4) and homogenized with a Polytron for 20-30 sec at 12.000 rpm. The protein content of this homogenate was determined with the Bio-Rad (Bradford) Protein Assay (Biorad Laboratories GmbH, München, Germany) according to the instructions of the manufacturer using gamma globulin as the standard. This homogenate was stored at −80° C. in aliquots and thawed immediately prior to use.
(§4) Radioligand Binding Assay Conditions
(§5) Aliquots of membrane preparations were thawed at RT, resupended in assay buffer (D2, D3: 50 mM Tris-HCl, 120 mM NaCl, 5 mM MgCl2, 1 mM EDTA, 5 mM KCl, 1.5 mM CaCl2, pH=7.4; 5-HT2A: 50 mM Tris-HCl, 10 mM MgCl2, 1 mM EGTA, pH=7.4), homogenized with a Polytron for 20-30 sec at 12.000 rpm and adjusted to a final concentration of approximately 7.5 μg protein/well (D2, D3) and 15 μg protein/well (5-HT2A), respectively.
(§6) The binding affinity (Ki) of the compounds was determined using radioligand binding. Membranes were incubated in a total volume of 200 μl with a fixed concentration of radioligand (final concentration approximately 0.7 nM [^3H]-spiperone for D2, 0.5 nM [^3H]-spiperone for D3, and 1.1 nM [^3H]-ketanserin for 5-HT2A) and ten concentrations of test compound in ranging between 10 μM-0.1 nM for 1 h at RT. At the end of the incubation, the reaction mixtures were filtered on to unifilter 96-well white microplates with bonded GF/C filters (Packard BioScience, Zurich, Switzerland; preincubated for 1 h in 0.1% polyethylenimine (PEI) in assay buffer) with a Filtermate 196 harvester (Packard BioScience) and washed 3 times with cold assay buffer. The nonspecific binding was determined with equally composed reaction mixtures in the presence of 10 μM unlabelled spiperone. Per well 45 μl of Microscint 40 (Perkin Elmer, Schwerzenbach, Switzerland) was added, plates for sealed, shaken for 20 min and counted for 3 min on a Topcount Microplate Scintillation Counter (Canberra Packard SA, Zurich, Switzerland) with quenching correction.
(§7) The CPM value for each duplicate of a concentration of competing compound was averaged (y1), then the % specific binding was calculated according to the equation (((y1−non-specific)/(total binding-non-specific))×100). Graphs were plotted with the % specific binding using XLfit, a curve fitting program that iteratively plots the data using Levenburg Marquardt algorithm. The single site competition analysis equation used was y=A+((B−A)/(1+((x/C)^D))), where y is the % specific binding, A is the minimum y, B is the maximum y, C is the IC50, x is the log10 of the concentration of the competing compound and D is the slope of the curve (the Hill Coefficient). From these curves the IC50 (inhibition concentration at which 50% specific binding of the radioligand was displaced) and Hill coefficient were determined. […]

Assay [2] has as its target T2, human serotonin 5-HT2A receptor (Homo sapiens, UniProt P28223).
T2 construct: expressed in transfected cells; host or cells: HEK-293 EBNA cells, transient transfection; membrane preparation
Put plainly: Radioligand binding ([3H]-ketanserin) to membranes of HEK-293 EBNA cells expressing human 5-HT2A receptor. The settings on record: 1.1 nM [3H]-ketanserin, HEK-293 EBNA membranes, 1 h at RT. As for the experimental part: as §1, §2, §3, §4, §5, §6, §7

For assay [3], the target named is T3, human dopamine D2 receptor (Homo sapiens, UniProt P14416).
T3 construct: expressed in transfected cells; host or cells: HEK-293 EBNA cells, transient transfection; membrane preparation
T3 sequence (P14416 whole entry): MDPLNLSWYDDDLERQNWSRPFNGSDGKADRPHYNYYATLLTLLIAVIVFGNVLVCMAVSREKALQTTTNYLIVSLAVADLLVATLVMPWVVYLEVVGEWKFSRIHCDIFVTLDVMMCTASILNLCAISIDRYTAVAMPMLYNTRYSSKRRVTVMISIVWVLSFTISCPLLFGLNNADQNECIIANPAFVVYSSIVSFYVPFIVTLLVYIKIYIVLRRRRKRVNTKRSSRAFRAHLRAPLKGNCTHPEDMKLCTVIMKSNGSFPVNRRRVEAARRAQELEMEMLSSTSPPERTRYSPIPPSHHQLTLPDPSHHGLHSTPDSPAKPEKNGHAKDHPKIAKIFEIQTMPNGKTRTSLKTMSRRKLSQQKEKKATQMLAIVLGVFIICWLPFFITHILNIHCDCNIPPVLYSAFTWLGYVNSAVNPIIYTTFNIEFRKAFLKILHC
Nature of the assay: Radioligand binding ([3H]-spiperone) to membranes of HEK-293 EBNA cells expressing human D2 receptor. The settings on record: human D2, 0.7 nM [3H]-spiperone, HEK-293 EBNA membranes, 1 h at RT. As for the experimental part: as §1, §2, §3, §4, §5, §6, §7

T2 sequence (P28223 whole entry): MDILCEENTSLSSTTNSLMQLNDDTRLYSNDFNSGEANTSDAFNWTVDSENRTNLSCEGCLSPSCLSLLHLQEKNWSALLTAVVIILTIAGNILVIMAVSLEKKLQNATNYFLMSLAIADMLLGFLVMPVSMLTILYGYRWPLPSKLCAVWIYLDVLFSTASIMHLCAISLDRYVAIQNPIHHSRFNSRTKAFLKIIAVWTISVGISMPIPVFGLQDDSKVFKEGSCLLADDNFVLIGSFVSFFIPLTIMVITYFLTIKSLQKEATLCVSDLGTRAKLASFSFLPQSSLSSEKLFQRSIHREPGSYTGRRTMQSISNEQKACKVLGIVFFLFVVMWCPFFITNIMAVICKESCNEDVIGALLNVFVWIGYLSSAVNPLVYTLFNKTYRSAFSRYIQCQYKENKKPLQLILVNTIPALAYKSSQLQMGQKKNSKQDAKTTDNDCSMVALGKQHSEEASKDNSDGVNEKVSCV
T1 sequence (P35462 whole entry): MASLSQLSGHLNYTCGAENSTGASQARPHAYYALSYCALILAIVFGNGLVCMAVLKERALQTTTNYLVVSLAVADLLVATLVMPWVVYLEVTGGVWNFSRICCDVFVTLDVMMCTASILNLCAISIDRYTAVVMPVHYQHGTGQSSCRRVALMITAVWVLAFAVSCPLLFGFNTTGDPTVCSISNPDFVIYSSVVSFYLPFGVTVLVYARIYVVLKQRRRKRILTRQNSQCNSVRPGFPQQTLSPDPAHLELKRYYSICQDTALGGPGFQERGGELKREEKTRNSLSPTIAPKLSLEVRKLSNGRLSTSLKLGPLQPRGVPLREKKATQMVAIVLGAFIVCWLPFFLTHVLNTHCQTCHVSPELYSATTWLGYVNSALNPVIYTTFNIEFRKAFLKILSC

On to `CO[C@H]1CC[C@H](CC(=O)N[C@H]2CC[C@H](CCN3CCN(c4noc5cc(Cl)ccc45)CC3)CC2)CC1` [Example 31, N-trans-(4-{2-[4-(6-Chloro-benzo[d]isoxazol-3-yl)-piperazin-1-yl]-ethyl}-cyclohexyl)-2-trans-(4-methoxy-cyclohexyl)-acetamide], for which the Ki in assay [1] is 8.89 nM; in assay [2], 2.9 nM; in assay [3], 4990 nM.

For the molecule `CC(=O)N[C@H]1CC[C@H](CCN2CCN(c3noc4cc(F)c(Cl)cc34)CC2)CC1` [Example 73, N-trans-(4-{2-[4-(5-Chloro-6-fluoro-benzo[d]isoxazol-3-yl)-piperazin-1-yl]-ethyl}-cyclohexyl)-acetamide], the Ki in assay [1] is 9.74 nM; in assay [2], 16.8 nM; in assay [3], 559 nM.

Consider `CCOCC(=O)N[C@H]1CC[C@H](CCN2CCN(c3noc4ccc(F)cc34)CC2)CC1` [Example 12, 2-Ethoxy-N-trans-(4-{2-[4-(5-fluoro-benzo[d]isoxazol-3-yl)-piperazin-1-yl]-ethyl}-cyclohexyl)-acetamide], for which the Ki worked out at 15.6 nM in assay [1], 23.5 nM in assay [2] and 1390 nM in assay [3].

As for `COC(CC(=O)N[C@H]1CC[C@H](CCN2CCN(c3noc4cc(F)c(Cl)cc34)CC2)CC1)OC` [Example 78, N-trans-(4-{2-[4-(5-Chloro-6-fluoro-benzo[d]isoxazol-3-yl)-piperazin-1-yl]-ethyl}-cyclohexyl)-3,3-dimethoxy-propionamide], the Ki worked out at 6.26 nM in assay [1], 5.05 nM in assay [2] and 1310 nM in assay [3].

`Cc1ccc2c(N3CCN(CC[C@H]4CC[C@H](NC(=O)CC5OCCCO5)CC4)CC3)noc2c1` [Example 101, 2-[1,3]Dioxan-2-yl-N-trans-(4-{2-[4-(6-methyl-benzo[d]isoxazol-3-yl)-piperazin-1-yl]-ethyl}-cyclohexyl)-acetamide]: the Ki came to 8.33 nM in assay [1], 5.15 nM in assay [2] and 384 nM in assay [3].

Consider `O=C(CC1COCCO1)N[C@H]1CC[C@H](CCN2CCN(c3noc4ccc(F)cc34)CC2)CC1` (stereo partly drawn) [Example 15, 2-[1,4]Dioxan-2-yl-N-trans-(4-{2-[4-(5-fluoro-benzo[d]isoxazol-3-yl)-piperazin-1-yl]-ethyl}-cyclohexyl)-acetamide], for which the values for the Ki in assay [1], in assay [2] and in assay [3] were 6.34 nM, 15.4 nM and 752 nM, respectively.

In the case of `CCS(=O)(=O)N[C@H]1CC[C@H](CCN2CCN(c3noc4cc(F)c(F)cc34)CC2)CC1` [Example 68, Ethanesulfonic acid N-trans-(4-{2-[4-(5,6-difluoro-benzo[d]isoxazol-3-yl)-piperazin-1-yl]-ethyl}-cyclohexyl)-amide], the Ki in assay [1] is 16.4 nM; in assay [2] it was 17.8 nM; in assay [3], 641 nM.

As for `O=C(C[C@@H]1CCCCO1)N[C@H]1CC[C@H](CCN2CCN(c3noc4cc(Cl)ccc34)CC2)CC1` [Example 50, N-trans-(4-{2-[4-(6-Chloro-benzo[d]isoxazol-3-yl)-piperazin-1-yl]-ethyl}-cyclohexyl)-2-(S)-tetrahydro-pyran-2-yl-acetamide], the figures for the Ki in assay [1], in assay [2] and in assay [3] were 23.7 nM, 4.78 nM and 1160 nM, respectively.

Turning to `CCC(=O)N[C@H]1CC[C@H](CCN2CCN(c3noc4cc(F)c(Cl)cc34)CC2)CC1` [Example 86, N-trans-(4-{2-[4-(5-Chloro-6-fluoro-benzo[d]isoxazol-3-yl)-piperazin-1-yl]-ethyl}-cyclohexyl)-propionamide], the Ki in assay [1] came to 5.16 nM; in assay [2], 9.53 nM; in assay [3], 250 nM.

Turning to `O=C(CC1OCCCO1)N[C@H]1CC[C@H](CCN2CCN(c3noc4ccc(F)cc34)CC2)CC1` [Example 24, 2-[1,3]Dioxan-2-yl-N-trans-(4-{2-[4-(5-fluoro-benzo[d]isoxazol-3-yl)-piperazin-1-yl]-ethyl}-cyclohexyl)-acetamide], the Ki in assay [1] worked out at 4.55 nM; in assay [2] it was 16.8 nM; in assay [3], 1070 nM.

For `COCCC(=O)N[C@H]1CC[C@H](CCN2CCN(c3noc4cc(Cl)c(Cl)cc34)CC2)CC1` [Example 94, N-trans-(4-{2-[4-(5,6-Dichloro-benzo[d]isoxazol-3-yl)-piperazin-1-yl]-ethyl}-cyclohexyl)-3-methoxy-propionamide], the Ki in assay [1] worked out at 2.23 nM; in assay [2], 26.3 nM; in assay [3] it was 1970 nM.

For the molecule `Cc1cc2c(N3CCN(CC[C@H]4CC[C@H](NC(=O)CC5COCCO5)CC4)CC3)noc2cc1F` (stereo partly drawn) [Example 113, 2-[1,4]Dioxan-2-yl-N-trans-(4-{2-[4-(6-fluoro-5-methyl-benzo[d]isoxazol-3-yl)-piperazin-1-yl]-ethyl}-cyclohexyl)-acetamide], the Ki in assay [1] is 25 nM; in assay [2], 14 nM; in assay [3], greater than 10500 nM.

On to `Cc1cc2c(N3CCN(CC[C@H]4CC[C@H](NC(=O)CC5CCCO5)CC4)CC3)noc2cc1F` (stereo partly drawn) [Example 118, N-trans-(4-{2-[4-(6-Fluoro-5-methyl-benzo[d]isoxazol-3-yl)-piperazin-1-yl]-ethyl}-cyclohexyl)-2-(tetrahydro-furan-2-yl)-acetamide], for which the Ki is 22 nM in assay [1], 21 nM in assay [2] and 1070 nM in assay [3].

For the molecule `Cc1cc2c(N3CCN(CC[C@H]4CC[C@H](NC(=O)CC5CC5)CC4)CC3)noc2cc1F` [Example 109, 2-Cyclopropyl-N-trans-(4-{2-[4-(6-fluoro-5-methyl-benzo[d]isoxazol-3-yl)-piperazin-1-yl]-ethyl}-cyclohexyl)-acetamide], the Ki in assay [1] is 14.5 nM; in assay [2], 32.6 nM; in assay [3], 10000 nM.

Turning to `COC(CC(=O)N[C@H]1CC[C@H](CCN2CCN(c3noc4cc(Cl)ccc34)CC2)CC1)OC` [Example 55, N-trans-(4-{2-[4-(6-Chloro-benzo[d]isoxazol-3-yl)-piperazin-1-yl]-ethyl}-cyclohexyl)-3,3-dimethoxy-propionamide], the Ki came to 6.16 nM in assay [1], 7.6 nM in assay [2] and 396 nM in assay [3].

In the case of `CS(=O)(=O)CCC(=O)N[C@H]1CC[C@H](CCN2CCN(c3noc4cc(F)c(Cl)cc34)CC2)CC1` [Example 90, N-trans-(4-{2-[4-(5-Chloro-6-fluoro-benzo[d]isoxazol-3-yl)-piperazin-1-yl]-ethyl}-cyclohexyl)-3-methanesulfonyl-propionamide], the Ki in assay [1] is 14.3 nM; in assay [2] it was 7.64 nM; in assay [3], 1190 nM.

Consider `COC[C@H]1C[C@H](CC(=O)N[C@H]2CC[C@H](CCN3CCN(c4noc5ccc(F)cc45)CC3)CC2)C1` [Example 27, N-trans-(4-{2-[4-(5-Fluoro-benzo[d]isoxazol-3-yl)-piperazin-1-yl]-ethyl}-cyclohexyl)-2-trans-(3-methoxymethyl-cyclobutyl)-acetamide], for which the values for the Ki in assay [1], in assay [2] and in assay [3] were 10 nM, 26.2 nM and 718 nM, respectively.

In the case of `O=C(CC(F)(F)F)N[C@H]1CC[C@H](CCN2CCN(c3noc4cc(F)c(Cl)cc34)CC2)CC1` [Example 93, N-trans-(4-{2-[4-(5-Chloro-6-fluoro-benzo[d]isoxazol-3-yl)-piperazin-1-yl]-ethyl}-cyclohexyl)-3,3,3-trifluoro-propionamide], the Ki in assay [1] was 1.96 nM; in assay [2], 6 nM.
